Assay results published in EPA's ToxValDB 9.5 (doi:10.2903/j.efsa.2016.4584).

Columns and labels:
Anas platyrhynchos = details: acute; oral; unspecified; mortality
Tagia sp. = details: chronic/long-term; duration: 56 days; growth
Mus musculus = details: chronic; duration: 18 months; body weight
Landoltia sp. = details: chronic/long-term; duration: 8 weeks; frond number
Canidae = details: subchronic; duration: 90 days; oral; Dog Other
Apis mellifera = details: acute, mortality
Folsomia candida = details: chronic/long-term; duration: 28 days; mortality
Oncorhynchus mykiss = details: acute; duration: 96 hours; mortality

COC(=O)c1ccc(CNS(C)(=O)=O)cc1S(=O)(=O)NC(=O)Nc1nc(OC)cc(OC)n1 [Mesosulfuron-methyl]
LD50 (Anas platyrhynchos): > 2000 mg/kg-day | LD50 (Colinus virginianus; acute, oral, mortality): > 2000 mg/kg-day | NOEL (Colinus virginianus; chronic): 93 mg/kg-day | NOEC (Tagia sp.): 125 mg/kg | NOAEL (Mus musculus): 103 mg/kg-day | NOEC (Landoltia sp.): 0.000388 mg/L | LD50 (Rattus norvegicus; acute, oral, mortality): > 5000 mg/kg | NOEL (Rattus norvegicus; reproduction developmental, no effects): 840 mg/kg-day | NOAEL (Canidae): 648 mg/kg-day | LD50 (Apis mellifera; dermal): > 100 µg/piece | LD50 (Apis mellifera; oral, unspecified): > 106 µg/piece | NOEC (Folsomia candida): 1000 mg/kg | LC50 (Oncorhynchus mykiss): > 100 µg/mL
